Data from patent publication US20230203004A1, “RSV INHIBITING 3-SUBSTITUTED QUINOLINE AND CINNOLINE DERIVATIVES” (Janssen Sciences Ireland Unlimited Company, priority 2020, published 2023).
Like-named read-outs stand apart in the source and are kept apart here.

Key:
[1] = Cytotoxicity in HeLa cells (ATP content, ATPlite kit); type: cell-based; conditions: human, TOX HELA CC50
Protocol: (§1) Black 384-well clear-bottom microtiter plates (Corning, Amsterdam, The Netherlands) were filled via acoustic drop ejection using the echo liquid handler (Labcyte, Sunnyvale, California). 200 nL of compound stock solutions (100% DMSO) were transferred to the assay plates. 9 serial 4-fold dilutions of compound were made, creating per quadrant the same compound concentration. The assay was initiated by adding 10 µL of culture medium to each well (RPMI medium without phenol red, 10% FBS-heat inactivated, 0.04% gentamycin (50 mg/mL). All addition steps are done by using a multidrop dispenser (Thermo Scientific, Erembodegem, Belgium). Next, rgRSV224 virus (MOI = 1) diluted in culture medium was added to the plates. rgRSV224 virus is an engineered virus that includes an additional GFP gene (Hallak LK, Spillmann D, Collins PL, Peeples ME. Glycosaminoglycan sulfation requirements for respiratory syncytial virus infection; Journal of virology (2000), 74(22), 10508-13) and was in-licensed from the NIH (Bethesda, MD, USA). Finally, 20 µL of a HeLa cell suspension (3,000 cells/well) were plated. Medium, virus- and mock-infected controls were included in each test. The wells contain […] DMSO per volume. Cells were incubated at 37° C. in a 5% CO2 atmosphere. Three days post-virus exposure, viral replication was quantified by measuring GFP expression in the cells by an in house developed MSM laser microscope (Tibotec, Beerse, Belgium). The EC50 was defined as the 50% inhibitory concentration for GFP expression. In parallel, compounds were incubated for three days in a set of white 384-well microtiter plates (Corning) and the cytotoxicity of compounds in HeLa cells was determined by measuring the ATP content of the cells using the ATPlite kit (Perkin Elmer, Zaventem, Belgium) according to the manufacturer’s instructions. The CC50 was defined as the 50% concentration for cytotoxicity.

rgRSV224 virus = assay: Antiviral activity: rgRSV224 (GFP) replication in HeLa cells; type: cell-based, respiratory syncytial virus (RSV); conditions: averaged data of several repeat experiments
Protocol: as §1

[2] = human respiratory syncytial virus, HeLa, 72 h, read-out: RSV HELA EC50, HeLa cells, rgRSV224 MOI = 1, GFP expression three days post-virus exposure
[3] = read-out: RSV HELA EC50, HeLa cells, rgRSV224 MOI = 1, GFP expression three days post-virus exposure

SMILES	CC50 at 3 days [1] [µM]	EC50 (rgRSV224 virus; [2]) [µM]	EC50 (rgRSV224 virus; [3]) [µM]
COc1cc(C(=O)NCC(O)(c2nc(-c3ccc(F)cc3)cc(C(C)(C)O)c2F)C(F)(F)F)cc2cc(C)nnc12 (racemic) [compound 279, (RS)Methoxy-3-Methyl-N-(3,3,3-Trifluoro-2-(3-Fluoro-6-(4-Fluorophenyl)-4-(2-Hydroxypropan-2-yl)Pyridin-2-yl)-2-Hydroxypropyl)Cinnoline-6-Carboxamide]	16	0.047	–
COc1cc(C(=O)NC[C@](O)(c2cc(C(C)(C)O)c(F)c(-c3ccc(F)cc3)n2)C2CC2(C)C)cc2cc(C)nnc12 (single isomer, unassigned) [compound 294, N-((-)(2,2-dimethylcyclopropyl)(5-fluoro-6-(4-fluorophenyl)-4-(2-hydroxypropanyl)pyndmyl)hydroxyethyl)-8-methoxy-3-methylcmnoline-6-carboxamide]	13	0.0049	–
COc1cc(C(=O)NC[C@@](O)(c2cc(C(C)(C)O)c(F)c(-c3ccc(F)cc3)n2)C2CC2(C)C)cc2cc(C)nnc12 (single isomer, unassigned) [compound 295, N-((+)(2,2-dimethylcyclopropyl)(5-fluoro-6-(4-fluorophenyl)-4-(2-hydroxypropanyl)pyridinyl)hydroxyethyl)-8-methoxy-3-methylcinnoline-6-carboxamide]	12	0.18	–
COc1cc(C(=O)NC[C@](O)(c2cc(C(C)(C)O)c(F)c(-c3ccc(F)cc3)n2)C2C[C@H]2F)cc2cc(C)nnc12 (single isomer, unassigned) [compound 300, N-((*S)(5-Fluoro-6-(4-Fluorophenyl)-4-(2-Hydroxypropanyl)Pyridinyl)((1*S,2*R)Fluorocyclopropyl)Hydroxyethyl)-8-Methoxy-3-Methylcinnoline-6-Carboxamide]	27	0.0007	–
COc1cc(C(=O)NC[C@@](O)(c2cc(C(C)(C)O)c(F)c(-c3ccc(F)cc3)n2)C2C[C@@H]2F)cc2cc(C)nnc12 (single isomer, unassigned) [compound 301, N-((*R)(5-Fluoro-6-(4-Fluorophenyl)-4-(2-Hydroxypropanyl)Pyridinyl)((1*R,2*S)Fluorocyclopropyl)Hydroxyethyl)-8-Methoxy-3-Methylcinnoline-6-Carboxamide]	22	0.336	–
COc1cc(C(=O)NC[C@](O)(c2cc(C(C)(C)O)c(F)c(-c3ccc(F)cc3)n2)C2C[C@@H]2F)cc2cc(C)nnc12 (single isomer, unassigned) [compound 302, N-((*S)(5-Fluoro-6-(4-Fluorophenyl)-4-(2-Hydroxypropanyl)Pyridinyl)((1*S.2*S)Fluorocyclopropyl)Hydroxyethyl)-8-Methoxy-3-Methylcinnoline-6-Carboxamide]	> 25	0.0012	–
COc1cc(C(=O)NC[C@@](O)(c2cc(C(C)(C)O)c(F)c(-c3ccc(F)cc3)n2)C2C[C@H]2F)cc2cc(C)nnc12 (single isomer, unassigned) [compound 303, N-((*R)(5-Fluoro-6-(4-Fluorophenyl)-4-(2-Hydroxypropanyl)Pyridinyl)((l*R, 2*R)Fluorocyclopropyl)Hydroxyethyl)-8-Methoxy-3-Methylcinnoline-6-Carboxamide]	23	0.295	–
COc1cc(C(=O)NCC(O)(c2cc(C(C)(C)O)c(F)c(-c3ccc(F)cc3)n2)C(F)F)cc2cc(C)cnc12 (single isomer, unassigned; (+)) [compound 203, (+)-N-{3,3-Difluoro-2-[5-Fluoro-6-(4-Fluorophenyl)-4-(2-Hydroxypropan-2-yl)Pyridin-2-yl]-2-Hydroxypropyl}-8-Methoxy-3-Methylquinoline-6-Carboxamide]	43	–	0.48
Cc1cnc2c(OC3CC3)cc(C(=O)NC[C@](O)(c3cc(C(C)(C)O)c(F)c(-c4ccc(F)cc4)n3)C(F)(F)F)cc2c1 [compound 323, (-)Cyclopropoxy-3-Methyl-N-(3,3,3-Trifluoro-2-(5-Fluoro-6-(4-Fluorophenyl)-4-(2-Hydroxypropan-2-yl)Pyridin-2-yl)-2-Hydroxypropyl)Quinoline-6-Carboxamide]	–	–	0.0038
